# Data taken from patent US11779628B2, “Use of cell-permeable peptide inhibitors of the JNK signal transduction pathway for the treatment of various diseases” (Xigen Inflammation Ltd., priority 2014, dated 2023).
# Read-outs that look alike come from different tables or passages of the source. Non-standard residues stand in square brackets, D forms with d. No end group written: not given here.
# Key:
# [1] = system: Sprague-Dawley albino rats, light-induced photoreceptor cell death; type: in vivo; settings: PBN
# Description: The aim of this study was to investigate the dose effect of XG-102 on light-induced photoreceptor cell death.
# 50 male Rat (Sprague-Dawley (albinos rat); approximately 8 weeks; 200-250 g (on ordering)) have been used. Rats are most commonly used in this experimental model. Animals were examined before study, and particular attention was paid to the eyes. Animals were held in observation for 2 weeks following their arrival. Animals were observed daily for signs of illness. Only healthy animals with no ocular abnormalities were accepted for use in experiments. Animals were housed individually in standard cages (420×270×190 mm)^ii. All animals were housed under identical environmental conditions. The temperature was held at 22±2° C. and the relative humidity at 55±10%. Rooms were continuously ventilated (15 times per hour). A cycle of 12 hours light (200-300 lx) and 12 hours darkness was automatically controlled. These parameters were continuously controlled and recorded. Throughout the study, animals had free access to food and water. They were fed a standard dry pellet diet. Tap water was available ad libitum from plastic bottles.
# Forty-eight (48) rats were randomly divided into six (6) groups of eight (8) animals each. Test item (XG-102: 30 mg/ml, 3 mg/ml, and 0.3 mg/ml) and vehicle (0.9% NaCl) were administered by intravitreal injection in right eyes the day before induction. The reference (Phenyl-N-test-Butylnitrone (PBN) (50 mg/kg)) and vehicle were intraperitoneally injected 30 min before induction then, 3 times during 12 hours of light exposition, then once after induction. Animals were placed in constant light (7000 lux) for 24 h. Electroretinograms (ERG) were recorded before light treatment and on days 9, 16 and 23 after induction. Eyes were then taken for histology and outer nuclear layer (ONL) thickness assessment. The table below summarizes the allocation of animals in treatment groups:
# For the intravitreal injection animals were anesthetized by intramuscular injection of a mixture of xylazine/ketamine. Test item (5 μl) and vehicle (5 μl) were injected in the right eye. The injection was performed under an operating microscope in the supratemporal area at pars plana using a 33G-needle mounted on a 50 μl Hamilton. The filled syringe was mounted into the UltraMicroPump III to achieve accurate injection in microliter range. Reference and vehicle were injected intraperitoneally at a dose volume of 2.5 ml/kg using a 30G-needle mounted on a 1 ml-syringe.
# Light Exposure: The rats that had been dark-adapted overnight were exposed for 24 hours to a continuous white fluorescent light (7000 Ix) in clear plastic cages. Each cage contained one rat. After exposure, the rats returned to rearing cyclic light conditions.
# ERG was recorded before induction and 7, 14 and 21 days after cessation of exposure (Days 9, 16 and 23) on right eyes of dark-adapted and anesthetized animals. The latency times (for a- and b-wave) and the a-wave and b-wave amplitudes were measured for each ERG; the latency times were expressed as millisecond and the a-wave and b-wave as a percentage of the baseline value obtained before light exposure. 15 min before measurement 10 μl Mydriaticum® (0.5% tropicamide) were instilled for pupillary dilatation.
# ERG Parameters: • Color: white maximum. • Maximum intensity: 2.6 cd·s/m^2 (0 dB); Duration 0.24 ms; number of flash: 1. • Filter: 50 Hz. • Impedence Threshold: 90 kΩ.
# Measurement of the ONL Thickness: After ERG testing, animal was euthanized by an overdose of pentobarbital and the right eyes were enucleated, fixed and embedded in paraffin. Sections (5 μm thick) were performed along the vertical meridian and stained with Trichrome-Masson. The vertical meridian included the optic nerve.
# Group mean values and standard deviation were calculated. A statistical Mann and Whitney test was used to evaluate the differences between pair-wise groups. For comparison between time-point into each vehicle groups, a Friedman test was used. […]
# [2] = system: TC-3 cell cultures; test: Cellular import of fluorescein-labeled TAT and TAT-IB1(s) peptides; type: cell-based; settings: fluorescein-labeled peptide 1 μM
# Description: The ability of the L- and D-enantiomeric forms of TAT and TAT-IB1(s) peptides (“TAT-IB peptides”) to enter cells was evaluated. L-TAT, D-TAT, L-TAT-IB1(s), and D-TAT-IB1(s) peptides [SEQ ID NOs: 5, 6, 9 and 12, respectively] were labeled by N-terminal addition of a glycine residue conjugated to fluorescein. Labeled peptides (1 μM) were added to TC-3 cell cultures, which were maintained as described in Example 3. At predetermined times cells were washed with PBS and fixed for five minutes in ice-cold methanol-acetone (1:1) before being examined under a fluorescence microscope. Fluorescein-labeled BSA (1 μM, 12 moles/mole BSA) was used as a control.
# Little to no signal was present at 48 hours.
# Fluorescent signals from these all-D retro-inverso peptides were still very strong 1 week later, and the signal was only slightly diminished at 2 weeks post treatment.
# [3] = system: female Sprague-Dawley rats, CYP-induced cystitis; test: CYP-induced acute cystitis, intravesical treatment; type: in vivo, rat; settings: 50 mg/mL i.ves., 24 h post-CYP
# Description: (§1) This preclinical model is well-used to test therapeutic approaches for the treatment of interstitial cystitis/painful bladder syndrome (IC/PBS).
# (§2) Animals were acclimatized to the laboratory conditions for at least 3 days before the start of any experiments. The animals were allocated to the following four experimental groups (n=10 animals per group):
# (§3) To induce acute cystitis, a single i.p. injection of CYP at a dose of 150 mg/kg in a final volume of 5 mL/kg was performed. Control rats received physiological saline under the same experimental conditions as CYP (final volume of 5 mL/kg, i.p.).
# (§4) On the day of each experiment, weight of rats was recorded.
# Standardized conditions including fixed time-of-day (a.m. to minimize the potential circadian variations in the behaviours responses) and single-experimenter testing of all animals were applied to minimize variability behavior-based pain testing. Visceral pain including allodynia and hyperalgesia was evaluated by applying to the lower abdomen, close to the urinary bladder, a set of 8 calibrated von Frey filaments of increasing forces (1, 2, 4, 6, 8, 10, 26 and 60 g) with an interstimulus interval of 5 seconds. Prior testing, the abdominal area designed for mechanical stimulation of each animal was shaved. Animals were then placed on a raised wire mesh floor under individual transparent Plexiglas box and acclimatized for at least 30 minutes before starting the von Frey test. Filaments were then applied 1-2 seconds through the mesh floor with enough strength to cause the filament to slightly bend. Each filament was tested 3 times. Care was taken to stimulate different areas within the lower abdominal region in the vicinity of the urinary bladder to avoid desensitization.
# Urinary bladders were rapidly collected and cleaned from lipoid tissue. […] Finally, wall thickness was measured using a digital caliper by placing the bladder wall between the two outside jaws.
# [4] = system: female Sprague-Dawley rats, CYP-induced cystitis; test: CYP-induced acute cystitis, intravenous treatment; type: in vivo, rat; settings: XG-102 2 mg/kg i.v. or ibuprofen 10 mg/kg i.v., 24 h post-CYP
# Description: as §1, §2, §3, §4
# Standardized conditions including fixed time-of-day (a.m. to minimize the potential circadian variations in the behaviours responses) and single-experimenter testing of all animals were applied to minimize variability behavior-based pain testing. Visceral pain including allodynia and hyperalgesia was evaluated by applying to the lower abdomen, close to the urinary bladder, a set of 8 calibrated von Frey filaments of increasing forces (1, 2, 4, 6, 8, 10, 26 and 60 g) with an interstimulus interval of 5 seconds. Prior testing, the abdominal area designed for mechanical stimulation of each animal was shaved. […]
# [5] = system: TC-3 cells; test: IL-1 induced pancreatic beta-cell death; type: cell-based; settings: single addition 1 μM, two days with IL-1
# Description: Inhibition of IL-1 induced pancreatic beta-cell death by the D-TAT-IB1(s) peptide was analyzed. […] Apoptotic cells were then counted after two days of incubation with IL-1 by use of Propidium Iodide and Hoechst 33342 nuclear staining. A minimum of 1,000 cells were counted for each experiment. Standard Error of the Means (SEM) are indicated, n=5. […] Long term inhibition of IL-1P induced cell-death by the D-TAT-IB1 peptide was also analyzed. […] Apoptotic cells were then counted after 15 days of incubation with IL-1 by use of propidium iodide and Hoechst 33342 nuclear staining. […] A minimum of 1.000 cells were counted for each experiment.
# [6] = system: JNK; settings: Dickens et al. 1997; cited from earlier work
# [7] = system: patients after ocular surgery; test: Clinical Phase II, post-surgery intraocular inflammation: safety
# Description: The criteria for evaluation of safety were: • a. Visual acuity by ETDRS method • b. Slit Lamp examination findings • c. The results of the ophthalmic fundus examination • d. Intra Ocular Pressure (IOP) measurements • e. Vital signs (blood pressure (BP), pulse rate (PR) and rhythm) • f. The results of the hematology and chemistry laboratory tests • g. The occurrence of Adverse Events • h. Presence (or not) of XG-102 in plasma 1 hour after the administration of study treatment in a subset of patients (approximately 30).
# An AE is therefore any unfavorable and unintended sign, symptom or disease temporally associated with the use of a medicinal product, whether or not considered related to the medicinal product.
# A Suspected Unexpected Serious Adverse Reaction (SUSAR) was defined as a suspected adverse reaction related to the treatment that is both unexpected (i.e. not consistent with the expected outcomes of the study treatment being administered) and serious.
# Patients were analyzed as treated, i.e. according to the treatment which they received. The safety set was the primary analysis set for the safety analysis.
# The present study was a double-blind study. All patients who were randomized and for whom the sub-conjunctival injection was started are included in the safety analysis by dose group. […] If the study treatment eye drops were stopped prematurely (i.e. before day 21), the patients concerned continued follow-up until day 28, in accordance with the study protocol.
# Investigators assessed (in a blinded manner) the relationship of each reported AE to any of the study treatments. An event was considered to be related to study treatment if the Investigator ticked either ‘possible’ or ‘probable’ as the reply to this question.
# [8] = Dexamethasone group, blinded assessment
compound,measurement,setting,value
"CC(C)(C)[N+]([O-])=Cc1ccccc1 [PBN, Phenyl-N-tert-Butylnitrone]",recovery of the b-wave (% of baseline),[1]; Day 9,100%
same,recovery of the b-wave (% of baseline),[1]; Day 16,103.6%
same,decrease of ONL thickness vs untreated eyes,[1]; Day 23,16%
same,recovery of the a-wave (% of baseline),[1]; Day 23,76.2%
same,recovery of the b-wave (% of baseline),[1]; Day 23,102.4%
GRKKRRQRRR (Description of sequence Peptide L-TAT (see Table 1)),entry into cells,[2],efficiently and rapidly (less than five minutes) entered cells
CC(C)Cc1ccc(C(C)C(=O)O)cc1 (stereo not shown) [ibuprofen],haemorrhage scores,[3],no significant change was observed regarding haemorrhage scores
same,nociceptive scores,[3],significant decrease of nociceptive scores
same,urinary bladder wall thickness,[3],a significant decrease was observed in urinary bladder wall thickness
same,nociceptive threshold,[3]; vs vehicle,Nociceptive threshold was significantly increased by ibuprofen treatment
same,nociceptive scores,[4],significantly decrease nociceptive scores
same,nociceptive threshold,[4],Nociceptive threshold was significantly increased by ibuprofen treatment
TDQSRPVQPFLNLTTPRKPRYTDPPRRRQRRKKRG ([dT][dD][dQ][dS][dR][dP][dV][dQ][dP][dF][dL][dN][dL][dT][dT][dP][dR][dK][dP][dR][dY][dT][dD][dP][dP][dR][dR][dR][dQ][dR][dR][dK][dK][dR]G) [D-TAT-IB1],IL-1 induced apoptosis,[5],decreased IL-1 induced apoptosis to a similar extent as L-TAT-IB peptides
IPSPSVEEPHKHRPTTLRLTTLGAQDS (Description of sequence Peptide IB2-long (see Table 1)),efficiency in binding JNK relative to c-Jun or ATF2,[6],approximately 100 fold
PGTGCGDTYRPKRPTTLNLFPQVPRSQDT (Description of sequence peptide IB1-long (see Table 1)),efficiency in binding JNK relative to c-Jun or ATF2,[6],approximately 100 fold
"C[C@@H]1C[C@H]2[C@@H]3CCC4=CC(=O)C=C[C@]4(C)[C@@]3(F)[C@@H](O)C[C@]2(C)[C@@]1(O)C(=O)CO [Dexamethasone, reference compound]",Reported AEs by severity: Mild,[7]; Dexamethasone dose group,42 (76.4%) number of events (% of reported events)
same,Reported AEs by severity: Moderate,[7]; Dexamethasone dose group,9 (16.4%) number of events (% of reported events)
same,Reported AEs by severity: Severe,[7]; Dexamethasone dose group,4 (7.3%) number of events (% of reported events)
same,AEs considered by the Investigator to be related to Dexamethasone,[7]; [8],2 (3.6%) Total # events (%)
same,AEs considered by the Investigator to be related to XG-102,[7]; [8],13 (23.64%) Total # events (%)
same,"Intraocular pressure increased, patients",[7]; dexamethasone,14%
same,events in SOC EYE DISORDERS,[7]; dexamethasone,30 events
same,patients with SAEs,[7]; dexamethasone,2 patients
same,patients with events in SOC EYE DISORDERS,[7]; dexamethasone,16 (32%)
GRKKRRQRRRPPRPKRPTTLNLFPQVPRSQD [L-TAT-IB1(s)],entry into cells,[2],efficiently and rapidly (less than five minutes) entered cells
